Test results published in PubChem BioAssay (NCI).
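Each compound was tested at five concentrations against cells in 96-well plates for 48 hours. Here, GI50 denotes the concentration required for 50% inhibition of growth. The concentration for full growth arrest is given as TGI.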

Key:
Assay in all cases: NCI-60 cell line screen, 48 h
NCI-H23 lung = system: NCI-H23 lung
CCRF-CEM leukemia = system: CCRF-CEM leukemia
TK-10 renal = system: TK-10 renal
NCI-H226 lung = system: NCI-H226 lung
CAKI-1 renal = system: CAKI-1 renal
HOP-62 NSCLC = system: HOP-62 NSCLC
SNB-75 CNS = system: SNB-75 CNS
NCI-H460 lung = system: NCI-H460 lung
SF-295 CNS = system: SF-295 CNS
HCT-116 colon = system: HCT-116 colon

SMILES	GI50 (NCI-H23 lung) [µM]	TGI (NCI-H23 lung) [µM]	GI50 (CCRF-CEM leukemia) [µM]	TGI (CCRF-CEM leukemia) [µM]	GI50 (TK-10 renal) [µM]	TGI (TK-10 renal) [µM]	GI50 (NCI-H226 lung) [µM]	TGI (NCI-H226 lung) [µM]	GI50 (CAKI-1 renal) [µM]	TGI (CAKI-1 renal) [µM]	GI50 (HOP-62 NSCLC) [µM]	TGI (HOP-62 NSCLC) [µM]	GI50 (SNB-75 CNS) [µM]	TGI (SNB-75 CNS) [µM]	GI50 (NCI-H460 lung) [µM]	TGI (NCI-H460 lung) [µM]	GI50 (SF-295 CNS) [µM]	TGI (SF-295 CNS) [µM]	GI50 (HCT-116 colon) [µM]	TGI (HCT-116 colon) [µM]
CC(=O)Nc1c(I)c(C(=O)O)c(I)c(N(C)C(C)=O)c1I	> 100	> 100	> 100	> 100	> 100	> 100	> 100	> 100	> 100	> 100	> 100	> 100	> 100	> 100	> 100	> 100	> 100	> 100	> 100	> 100
COc1ccc(Oc2nc(Nc3ccc(N4CCOCC4)cc3)ncc2NC(=O)Nc2cc(OC)cc(OC)c2)cc1	2.69	23.4	> 33.3	> 33.3	6.58	> 33.3	3.84	11.8	4.24	13.5	5.48	22.2	1.65	18.2	1.31	5.72	4.19	12.7	1.14	3.27
CS(=O)/C(C#N)=C\C=C\c1cccc(Cl)c1 (stereo not given)	1.63	4.96	2.34	18.7	5.59	17.5	5.02	20.3	2.06	13.4	4.56	16.2	7.11	37.4	2.41	11.2	3.05	10.7	1.12	4.73
Cc1ccc(-c2c3c(N)nc(-c4ccncc4)nc3nc3c2c(C)nn3-c2ccccc2)cc1	21.6	> 37.5	12.6	> 37.5	9.5	25.6	14	> 37.5	> 37.5	> 37.5	0.647	1.95	1.64	15.2	6.5	33.6	> 37.5	> 37.5	2.95	11.1
O=S(=O)(CC(O)C(Cl)(Cl)Cl)NNc1ccccc1 (stereo not given)	–	> 100	–	> 100	–	> 100	–	> 100	–	> 100	–	> 100	–	> 100	–	> 100	–	> 100	–	> 100
Cc1nn2c(=O)n(-c3cccc(-n4nnc5c(-c6ccccc6)c(C)nn5c4=O)c3C)nnc2c1-c1ccccc1	–	> 100	–	> 100	–	> 100	–	> 100	–	> 100	–	> 100	–	> 100	–	50.1	–	> 100	–	30.4
O=C(NCCSSCCNC(=O)/C(Cc1ccc(O)c(Br)c1)=N/O)/C(Cc1ccc(O)c(Br)c1)=N/O	–	13.1	–	> 18.3	–	> 22.4	–	41.9	–	5.32	–	6.1	–	> 13.6	–	> 20.6	–	4.29	–	5.98
Cc1cc2oc(=O)c(Cl)c(Cl)c2c(C)c1Cl	–	39.7	–	7.04	–	28.3	–	33.2	–	15.7	–	66	–	25.2	–	59.9	–	31.9	–	14
[CH3][Sn]([CH3])([CH3])[O]C(=O)C(O)c1ccccc1 (stereo not given)	6.68	61.8	4.84	> 73.5	> 59.3	> 100	16.4	94	4.95	34.5	2.12	4.4	5.61	54.3	3.9	> 69.8	3.67	16.9	3.58	31.6
O=C(CCCCCNC1=CC(=O)c2ccccc2C1=O)NCCC[Te]c1ccccc1	0.336	1.48	0.251	0.774	2.05	6.04	0.335	1.23	1.7	3.93	0.272	0.731	0.29	1.48	0.197	0.576	0.248	0.686	0.295	0.98
S=C(Nc1ccc(Cl)cc1)SC1CCCCC1	–	45.4	–	> 100	–	> 100	–	> 100	–	> 100	–	87.5	–	74.4	–	86.7	–	70.5	–	70.8
COc1cc(-c2ccccc2)c(OC)cc1CCl	–	> 100	–	> 100	–	> 100	–	> 100	–	> 100	–	> 100	–	> 100	–	> 100	–	> 100	–	> 100
Cc1ccc(C)c(NC(=O)C(=O)CC(=O)c2cccc3ccccc23)c1	–	> 100	–	> 100	–	> 100	–	> 100	–	> 100	–	> 100	–	> 100	–	> 100	–	> 100	–	> 100
Cc1ccn2c(-c3csc(Nc4cccc(O)c4)n3)c(C)nc2c1	1.01	19.7	0.48	> 33	4.88	24.9	14.1	57.4	1.21	21.2	0.638	19.1	0.225	1.65	0.423	16.9	2.34	11.9	0.397	15.1
COc1ccc(C2=NNC(c3cc(Cc4ccc(O)c(C5CC(c6ccc(OC)cc6)=NN5)c4)ccc3O)C2)cc1 (stereo not given)	5.3	> 100	3.85	> 100	19.6	> 100	6.08	> 100	30.2	> 100	8.64	> 100	4.98	> 100	4.88	> 100	21.2	> 100	4.11	15.9
Cc1ccc2c(n1)C(=O)C(Cl)=C(Nc1ccc(N3CCN(C)CC3)cc1)C2=O	1.79	3.75	3.07	56.4	1.95	3.42	1.77	3.38	1.68	3.08	3.63	14.7	2.11	8.53	3.74	15.7	18	32.3	1.67	3.19
CCc1ccc(Oc2nccc(-c3c(-c4ccc(F)cc4)ncn3C3CCNCC3)n2)cc1	10.7	15.1	6.77	17.8	4.24	7.93	6.81	16.3	5.5	14.6	4.13	8.53	3.58	10.7	4.28	8.49	5.52	12.1	5.84	13.9
NC(=O)c1ccccc1NC(=O)C(=O)Nc1n[nH]c(N)n1	–	> 100	–	> 100	–	> 100	–	> 100	–	> 100	–	> 100	–	> 100	–	> 100	–	> 100	–	> 100
